What was measured:
[1] = test system: IL-17A-induced G-CSF production in human normal keratinocyte (NHK); assay: NHK Assay: IL-17A-induced G-CSF production in human normal keratinocytes; type: cell-based; conditions: 24 h, adult normal human keratinocytes, IL-17A 5 ng/mL, simple average if tested more than once
Summary of the method: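 Compound is first combined with recombinant human IL-17A for 1 h at rt, and the mix is added to adult normal human keratinocytes so that IL-17A is 5 ng/mL. After 24 h at 37° C in 5% FBS, G-CSF released into the medium is read by HTRF and IC50 derived.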

[2] = target: IL-17A(FLAG-Tagged): IL-17RA(His-Tagged) (Homo sapiens, UniProt Q16552, K93Q); assay: IL-17A(FLAG-Tagged): IL-17RA(His-Tagged) Binding Disruption Eu-HTRF Assay; conditions: IL-17A/IL-17RA binding disruption, simple average if tested more than once
Chain of UniProt Q16552 (Q16552 with tags, fused parts or gaps K93Q): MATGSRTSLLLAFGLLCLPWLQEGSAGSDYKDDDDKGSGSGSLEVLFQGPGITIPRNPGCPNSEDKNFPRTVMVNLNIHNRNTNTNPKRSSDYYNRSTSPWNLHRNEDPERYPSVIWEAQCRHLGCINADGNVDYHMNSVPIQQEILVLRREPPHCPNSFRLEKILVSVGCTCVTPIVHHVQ
Summary of the method: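 IC50 comes from a one-site competition fit of the HTRF 665/620 nm ratio. Compound dilutions (2-fold, 22 points) were held 1 h rt with FLAG-tagged IL-17A dimer, then His-tagged IL-17RA plus Eu-cryptate anti-FLAG and D2 anti-His antibodies were added for 2 h rt.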

SMILES	IC50 [2]	IC50 ([1]; Homo sapiens, Keratinocyte)	IC50 [1]
CCOc1nocc1C(=O)N[C@H](c1cn2ncc([C@H](NC(=O)CCC(F)(F)F)C3CC3)cc2n1)C1CCC(F)(F)CC1 [Example 238, N—((S)-(7-((R)-Cyclopropyl(4,4,4-trifluorobutanamido)methyl)imidazo[1,2-b]pyridazin-2-yl)(4,4-difluorocyclohexyl)methyl)-3-ethoxyisoxazole-4-carboxamide]	190 nM	830 nM	
O=C(CCC(F)(F)F)NCc1cnn2cc([C@@H](NC(=O)c3ccccc3)C3CCC(F)(F)CC3)nc2c1 [Example 5, (S)—N-((4,4-Difluorocyclohexyl)(7-((4,4,4-trifluorobutanamido)methyl)imidazo[1,2-b]pyridazin-2-yl)methyl)benzamide]	1100 nM	1900 nM	
O=C(CCC(F)(F)F)N[C@@H](c1cnn2cc([C@@H](NC(=O)c3cnn(CCOC(F)F)c3)C3CCC(F)(F)CC3)nc2c1)C1CC1 [Example 37, N—((S)-(7-((R)-Cyclopropyl(4,4,4-trifluorobutanamido)methyl)imidazo[1,2-b]pyridazin-2-yl)(4,4-difluorocyclohexyl)methyl)-1-(2-(difluoromethoxy)ethyl)-1H-pyrazole-4-carboxamide]	230 nM	630 nM	
O=C(CCC(F)(F)F)N[C@@H](c1cnn2cc([C@@H](NC(=O)c3nonc3OCC(F)(F)F)C3CCC(F)(F)CC3)nc2c1)C1CC1 [Example 382, N—((S)-(7-((R)-Cyclopropyl(4,4,4-trifluorobutanamido)methyl)imidazo[1,2-b]pyridazin-2-yl)(4,4-difluorocyclohexyl)methyl)-4-(2,2,2-trifluoroethoxy)-1,2,5-oxadiazole-3-carboxamide]	51 nM	11 nM	
O=C(CCC(F)(F)F)N[C@@H](c1cnn2cc([C@@H](NC(=O)c3cnn(CC4CC(F)(F)C4)n3)C3CCC(F)(F)CC3)nc2c1)C1CC1 [Example 63, N—((S)-(7-((R)-Cyclopropyl(4,4,4-trifluorobutanamido)methyl)imidazo[1,2-b]pyridazin-2-yl)(4,4-difluorocyclohexyl)methyl)-2-((3,3-difluorocyclobutyl)methyl)-2H-1,2,3-triazole-4-carboxamide]	130 nM	200 nM	
Cc1c(C(=O)N[C@H](c2cn3ncc(C(NC(=O)CC4CC(F)(F)C4)C4CC4)cc3n2)C2CCC(F)(F)CC2)cnn1CCC(F)(F)F (single isomer, unassigned) [Example 52, N—((S)-(7-((R*)-Cyclopropyl(2-(3,3-difluorocyclobutyl)acetamido)methyl)imidazo[1,2-b]pyridazin-2-yl)(4,4-difluorocyclohexyl)methyl)-5-methyl-1-(3,3,3-trifluoropropyl)-1H-pyrazole-4-carboxamide]	280 nM		670 nM
COc1nonc1C(=O)N[C@H](c1cn2ncc([C@H](NC(=O)CC3CC(F)(F)C3)C3CC3)cc2n1)C1CCC(F)(F)CC1 [Example 409, N—((S)-(7-((R)-Cyclopropyl(2-(3,3-difluorocyclobutyl)acetamido)methyl)imidazo[1,2-b]pyridazin-2-yl)(4,4-difluorocyclohexyl)methyl)-4-methoxy-1,2,5-oxadiazole-3-carboxamide]	85 nM	140 nM	
O=C(CCC(F)(F)F)N[C@@H](c1cnn2cc([C@@H](NC(=O)c3nonc3C3CC3)C3CCC(F)(F)CC3)nc2c1)C1CC1 [Example 381, 4-Cyclopropyl-N—((S)-(7-((R)-cyclopropyl(4,4,4-trifluorobutanamido)methyl)imidazo[1,2-b]pyridazin-2-yl)(4,4-difluorocyclohexyl)methyl)-1,2,5-oxadiazole-3-carboxamide]	27 nM	31 nM	
CC(C)(C)OC[C@H](NC(=O)c1nonc1C1CC1)c1cn2ncc([C@H](NC(=O)CC3CC(F)(F)C3)C3CC3)cc2n1 [Example 319, N—((R)-2-(tert-Butoxy)-1-(7-((R)-cyclopropyl(2-(3,3-difluorocyclobutyl)acetamido)methyl)imidazo[1,2-b]pyridazin-2-yl)ethyl)-4-cyclopropyl-1,2,5-oxadiazole-3-carboxamide]	66 nM	330 nM	
CC(F)(F)Cn1ncnc1C(=O)N[C@H](c1cn2ncc([C@H](NC(=O)CCC(F)(F)F)C3CC3)cc2n1)C1CCC(F)(F)CC1 [Example 477, N—((S)-(7-((R)-Cyclopropyl(4,4,4-trifluorobutanamido)methyl)imidazo[1,2-b]pyridazin-2-yl)(4,4-difluorocyclohexyl)methyl)-1-(2,2-difluoropropyl)-1H-1,2,4-triazole-5-carboxamide]	290 nM	1400 nM	
O=C(CCC(F)(F)F)N[C@@H](c1cnn2cc([C@@H](NC(=O)c3cnn(CCCF)n3)C3CCC(F)(F)CC3)nc2c1)C1CC1 [Example 113, N—((S)-(7-((R)-Cyclopropyl(4,4,4-trifluorobutanamido)methyl)imidazo[1,2-b]pyridazin-2-yl)(4,4-difluorocyclohexyl)methyl)-2-(3-fluoropropyl)-2H-1,2,3-triazole-4-carboxamide]	430 nM	400 nM	
CC(C)n1nccc1C(=O)N[C@H](c1cn2ncc(C(CC#N)NC(=O)CC3CC(F)(F)C3)cc2n1)C1CCC(F)(F)CC1 (single isomer, unassigned) [Example 447, N—((S)-(7-((R*)-2-Cyano-1-(2-(3,3-difluorocyclobutyl)acetamido)ethyl)imidazo[1,2-b]pyridazin-2-yl)(4,4-difluorocyclohexyl)methyl)-1-isopropyl-1H-pyrazole-5-carboxamide]	300 nM		1100 nM
CC(C)n1nccc1C(=O)N[C@H](c1cn2ncc(C(CO)NC(=O)CC3CC(F)(F)C3)cc2n1)C1CCC(F)(F)CC1 (single isomer, unassigned) [Example 533, N—((S)-(7-((S*)-1-(2-(3,3-Difluorocyclobutyl)acetamido)-2-hydroxyethyl)imidazo[1,2-b]pyridazin-2-yl)(4,4-difluorocyclohexyl)methyl)-1-isopropyl-1H-pyrazole-5-carboxamide]	480 nM		150 nM
O=C(CCC(F)(F)F)N[C@@H](c1cnn2cc([C@@H](NC(=O)c3cccc(C4CC4(F)F)c3)C3CCC(F)(F)CC3)nc2c1)C1CC1 (stereo partly drawn) [Example 164, N—((S)-(7-((R)-Cyclopropyl(4,4,4-trifluorobutanamido)methyl)imidazo[1,2-b]pyridazin-2-yl)(4,4-difluorocyclohexyl)methyl)-3-(2,2-difluorocyclopropyl)benzamide]	55 nM	130 nM	

Continued by falling IC50 [2], values first:

IC50 [2]	SMILES	IC50 ([1]; Homo sapiens, Keratinocyte)	IC50 [1]
4900 nM	O=C(CCC(F)(F)F)NC(c1cnn2cc([C@@H](NC(=O)c3cnn(CCC(F)(F)F)c3)C3CCC(F)(F)CC3)nc2c1)C1CC1 (single isomer, unassigned) [Example 7, N—((S)-(7-((S*)-Cyclopropyl(4,4,4-trifluorobutanamido)methyl)imidazo[1,2-b]pyridazin-2-yl)(4,4-difluorocyclohexyl)methyl)-1-(3,3,3-trifluoropropyl)-1H-pyrazole-4-carboxamide]		> 20000 nM
2900 nM	O=C(CCC(F)(F)F)N[C@@H](c1cnn2cc([C@@H](NC(=O)c3cnccn3)C3CCC(F)(F)CC3)nc2c1)C1CC1 [Example 223, N—((S)-(7-((R)-Cyclopropyl(4,4,4-trifluorobutanamido)methyl)imidazo[1,2-b]pyridazin-2-yl)(4,4-difluorocyclohexyl)methyl)pyrazine-2-carboxamide]	> 20000 nM	
1400 nM	O=C(CC1CC(F)(F)C1)N[C@@H](c1cnn2cc([C@@H](NC(=O)[C@@H]3C[C@H]3C(F)(F)F)C3CCC(F)(F)CC3)nc2c1)C1CC1 (relative stereo) [Example 144, (Trans-1R*,2R*)—N—((S)-(7-((R)-Cyclopropyl(2-(3,3-difluorocyclobutyl)acetamido)methyl)imidazo[1,2-b]pyridazin-2-yl)(4,4-difluorocyclohexyl)methyl)-2-(trifluoromethyl)cyclopropane-1-carboxamide]	7000 nM	
230 nM	COc1cncc(C(=O)N[C@H](c2cn3ncc([C@H](NC(=O)CCC(F)(F)F)C4CC4)cc3n2)C2CCC(F)(F)CC2)c1 [Example 189, N—((S)-(7-((R)-Cyclopropyl(4,4,4-trifluorobutanamido)methyl)imidazo[1,2-b]pyridazin-2-yl)(4,4-difluorocyclohexyl)methyl)-5-methoxynicotinamide]	810 nM	
100 nM	Cc1oncc1C(=O)N[C@H](c1cn2ncc([C@H](NC(=O)CCC(F)(F)F)C3CC3)cc2n1)C1CCC(F)(F)CC1 [Example 159, N—((S)-(7-((R)-Cyclopropyl(4,4,4-trifluorobutanamido)methyl)imidazo[1,2-b]pyridazin-2-yl)(4,4-difluorocyclohexyl)methyl)-5-methylisoxazole-4-carboxamide]	260 nM	
37 nM	O=C(CC1CC(F)(F)C1)N[C@@H](c1cnn2cc([C@@H](NC(=O)c3conc3C3CC3)C3CCC(F)(F)CC3)nc2c1)C1CC1 [Example 125, 3-Cyclopropyl-N—((S)-(7-((R)-cyclopropyl(2-(3,3-difluorocyclobutyl)acetamido)methyl)imidazo[1,2-b]pyridazin-2-yl)(4,4-difluorocyclohexyl)methyl)isoxazole-4-carboxamide]	78 nM	

— US11702422B2, “Imidazopyridazines as modulators of IL-17” (Janssen Pharmaceutica NV, priority 2020, dated 2023)
